Measurements from EP2931723B1, “NEW BICYCLIC COMPOUNDS AND THEIR USE AS ANTIBACTERIAL AGENTS AND -LACTAMASE INHIBITORS” (Fedora Pharmaceuticals Inc., priority 2012, dated 2014).

Tests used:
[1] = tested on: E. coli JMI 11103; assay: MIC, antibacterial and synergistic activity; format: cell-based; settings: for MIC Aztreonam + inhibitor / MIC Ceftazidime + inhibitor / MIC Meropenem + inhibitor: E. coli JMI 11103 (CTX-M15 (Intermediate ESBL)); for MIC Aztreonam + inhibitor: Aztreonam + inhibitor at 4 µg/mL; for MIC Ceftazidime + inhibitor: Ceftazidime + inhibitor at 4 µg/mL; for MIC Meropenem + inhibitor: Meropenem + inhibitor at 4 µg/mL; for MIC: Escherichia coli, JMI11103, E. coli JMI 11103 (CTX-M15 (Intermediate ESBL)), substance alone
[2] = tested on: metallo β-lactamase producing bacteria; assay: MIC in combination with various antibiotics against metallo β-lactamase producing bacteria (Tables 10-12); format: cell-based; settings: Enterobacter cloacae, agent alone
Protocol: In the Tables 10 - 12, compounds herein disclosed were tested in combination with various antibiotics against metallo β-lactamase producing bacteria.

[3] = tested on: K. pneumo JMI 2674; assay: MIC, antibacterial and synergistic activity; format: cell-based; settings: K. pneumo JMI 2674 (CTX-M15 (ESBL)); substance alone
[4] = tested on: E. coli JMI 10770; assay: MIC, antibacterial and synergistic activity; format: cell-based; settings: Escherichia coli, JMI10770; E. coli JMI 10770 (CTX-M15 (Hyper ESBL)); substance alone
[5] = tested on: E. coli JMI 10768; assay: MIC, antibacterial and synergistic activity; format: cell-based; settings: E. coli JMI 10768 (CTX-M15 (Weak ESBL)); Meropenem + inhibitor at 4 µg/mL
[6] = tested on: K. pneumo JMI 4106; assay: MIC, antibacterial and synergistic activity; format: cell-based; settings: K. pneumo JMI 4106 (KPC-3, TEM-1, SHV-12, SHV-141); for MIC Aztreonam + inhibitor: Aztreonam + inhibitor at 4 µg/mL; for MIC Ceftazidime + inhibitor: Ceftazidime + inhibitor at 4 µg/mL; for MIC Meropenem + inhibitor: Meropenem + inhibitor at 4 µg/mL; for MIC: substance alone, read-out: MIC
[7] = tested on: P. aerug JMI 2686; assay: MIC, antibacterial and synergistic activity; format: cell-based; settings: P. aerug JMI 2686 (KPC-2 (Cpase)); substance alone
[8] = tested on: E. cloacae JMI 36; assay: MIC, antibacterial and synergistic activity; format: cell-based; settings: E. cloacae JMI 36 (P99); for MIC Aztreonam + inhibitor: Aztreonam + inhibitor at 4 µg/mL; for MIC Ceftazidime + inhibitor: Ceftazidime + inhibitor at 4 µg/mL; for MIC Meropenem + inhibitor: Meropenem + inhibitor at 4 µg/mL; for MIC: Enterobacter cloacae, JMI36, substance alone, read-out: MIC
[9] = tested on: K. pneumo JMI 2681; assay: MIC, antibacterial and synergistic activity; format: cell-based; settings: K. pneumo JMI 2681 (Oxa-48 (Cpase)); for MIC Aztreonam + inhibitor: Aztreonam + inhibitor at 4 µg/mL; for MIC Ceftazidime + inhibitor: Ceftazidime + inhibitor at 4 µg/mL; for MIC Meropenem + inhibitor: Meropenem + inhibitor at 4 µg/mL; for MIC: substance alone, read-out: MIC
[10] = tested on: E. coli ATCC 25922; assay: MIC, antibacterial and synergistic activity; format: cell-based; settings: E. coli ATCC 25922 (Wt); for MIC Aztreonam + inhibitor: Aztreonam + inhibitor at 4 µg/mL; for MIC Ceftazidime + inhibitor: Ceftazidime + inhibitor at 4 µg/mL; for MIC Meropenem + inhibitor: Meropenem + inhibitor at 4 µg/mL; for MIC: Escherichia coli, ATCC25922, substance alone
[11] = biological target: TEM-1 (Escherichia coli, UniProt P62593); assay: β-lactamase inhibitory activity, spectrophotometric nitrocefin assay; format: biochemical; settings: nitrocefin as substrate
Protocol: (§1) The inhibitory activities of compounds herein disclosed against various enzymes were measured by spectrophotometric assay using […] and using nitrocefin as a substrate [J. Antimicrob. Chemother., 28, pp 775-776 (1991)] . The concentration of inhibitor (IC50) which inhibits by 50% the reaction of hydrolysis of nitrocefin by the enzyme is determined. […] Table 13 Test for β-lactamase Inhibitory Activity

[12] = biological target: CTX-M-9 (Escherichia coli, UniProt Q9L5C8); assay: as above; format: biochemical; settings: nitrocefin as substrate
Protocol: as §1

[13] = biological target: KPC-2 (Klebsiella pneumoniae, UniProt Q9F663); assay: as above; format: biochemical; settings: nitrocefin as substrate
Protocol: as §1

[14] = biological target: CMY-2 (Klebsiella pneumoniae, UniProt Q48434); assay: as above; format: biochemical; settings: nitrocefin as substrate
Protocol: as §1

Chain of TEM-1 (P62593 24-286 limits assumed): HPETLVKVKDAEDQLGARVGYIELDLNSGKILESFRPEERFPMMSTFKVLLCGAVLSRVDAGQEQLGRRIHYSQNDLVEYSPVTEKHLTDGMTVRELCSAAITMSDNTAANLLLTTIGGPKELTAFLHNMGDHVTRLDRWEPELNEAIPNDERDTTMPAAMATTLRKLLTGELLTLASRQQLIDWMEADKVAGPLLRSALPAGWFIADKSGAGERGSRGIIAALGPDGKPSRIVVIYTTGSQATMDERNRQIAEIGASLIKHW
Chain of CTX-M-9 (Q9L5C8 29-291): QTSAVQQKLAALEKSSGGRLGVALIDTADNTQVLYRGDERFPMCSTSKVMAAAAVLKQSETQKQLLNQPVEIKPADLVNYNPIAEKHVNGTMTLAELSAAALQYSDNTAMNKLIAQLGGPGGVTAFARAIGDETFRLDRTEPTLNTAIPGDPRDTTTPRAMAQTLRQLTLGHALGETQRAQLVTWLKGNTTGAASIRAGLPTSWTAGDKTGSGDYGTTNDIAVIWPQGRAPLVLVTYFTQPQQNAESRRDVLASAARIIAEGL
Chain of CMY-2 (Q48434 21-381, species assumed): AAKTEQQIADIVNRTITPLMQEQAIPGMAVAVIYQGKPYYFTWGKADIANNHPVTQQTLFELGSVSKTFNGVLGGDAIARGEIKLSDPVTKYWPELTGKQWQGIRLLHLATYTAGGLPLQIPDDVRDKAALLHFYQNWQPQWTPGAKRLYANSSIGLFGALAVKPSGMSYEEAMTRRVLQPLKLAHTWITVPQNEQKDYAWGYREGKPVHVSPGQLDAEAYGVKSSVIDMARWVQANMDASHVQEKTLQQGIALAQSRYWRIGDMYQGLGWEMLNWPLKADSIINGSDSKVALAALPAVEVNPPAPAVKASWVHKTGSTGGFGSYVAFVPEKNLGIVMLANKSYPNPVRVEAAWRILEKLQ
Chain of KPC-2 (Q9F663 25-293, looked up, species assumed): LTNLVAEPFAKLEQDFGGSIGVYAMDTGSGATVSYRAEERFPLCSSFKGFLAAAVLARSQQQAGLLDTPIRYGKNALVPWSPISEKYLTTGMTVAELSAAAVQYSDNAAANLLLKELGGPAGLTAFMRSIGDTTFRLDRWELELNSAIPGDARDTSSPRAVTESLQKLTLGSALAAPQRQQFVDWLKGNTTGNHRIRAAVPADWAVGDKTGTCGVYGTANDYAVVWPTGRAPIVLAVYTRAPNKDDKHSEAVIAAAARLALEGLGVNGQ

Row | Compound | MIC Aztreonam + inhibitor [1] [µg/mL] | MIC Ceftazidime + inhibitor [1] [µg/mL] | MIC Meropenem + inhibitor [1] [µg/mL] | MIC [1] [µg/mL] | MIC [3] [µg/mL] | MIC [4] [µg/mL] | MIC Meropenem + inhibitor [5] [µg/mL] | MIC Aztreonam + inhibitor [6] [µg/mL] | MIC Ceftazidime + inhibitor [6] [µg/mL] | MIC Meropenem + inhibitor [6] [µg/mL] | MIC [6] [µg/mL] | MIC [7] [µg/mL] | MIC Aztreonam + inhibitor [8] [µg/mL] | MIC Ceftazidime + inhibitor [8] [µg/mL] | MIC Meropenem + inhibitor [8] [µg/mL] | MIC [8] [µg/mL] | MIC Aztreonam + inhibitor [9] [µg/mL] | MIC Ceftazidime + inhibitor [9] [µg/mL] | MIC Meropenem + inhibitor [9] [µg/mL] | MIC [9] [µg/mL] | other results
1 | CC(=O)NNC(=O)[C@@H]1CC[C@@H]2CN1C(=O)N2OS(=O)(=O)O [Ex. 5, (2S,5R)-N'-acetyl-7-oxo-6-(sulfooxy)-1,6-diazabicyclo[3.2.1]octane-2-carbohydrazide] | ≤0.062 | ≤0.25 | ≤0.031 | 8 | > 16 | 8 | ≤0.031 | 1 | 0.5 | 2 | > 16 | 16 | >4 | 16 | 0.125 | > 16 | 0.5 | ≤0.25 | 2 | 16 | MIC ([2]; Isolate No 4, Enzyme VIM-6): 64; MIC ([2]; Isolate No 10, Enzyme IMP-26): 64; MIC Aztreonam + inhibitor [10]: ≤0.062 µg/mL; MIC Ceftazidime + inhibitor [10]: ≤0.25 µg/mL; MIC Meropenem + inhibitor [10]: ≤0.031 µg/mL; MIC [10]: 2 µg/mL; IC50 [11]: 0.052 ± 0.004 µM; IC50 [12]: 0.327 ± 0.02 µM; IC50 [13]: 0.091 ± 0.009 µM; IC50 [14]: 0.008 ± 0.001 µM
2 | CCC(=O)NNC(=O)[C@@H]1CC[C@@H]2CN1C(=O)N2OS(=O)(=O)O [Ex. 8, (2S,5R)-7-oxo-N'-propanoyl-6-(sulfooxy)-1,6-diazabicyclo[3.2.1]octane-2-carbohydrazide] | ≤0.062 | ≤0.25 | ≤0.0312 | > 16 | > 16 | > 16 | ≤0.0312 | ≤0.062 | ≤0.25 | ≤0.0312 | > 16 | > 16 | 0.125 | 0.5 | 0.25 | > 16 | 0.125 | ≤0.25 | 0.5 | > 16 | MIC Aztreonam + inhibitor [10]: ≤0.0625 µg/mL; MIC Ceftazidime + inhibitor [10]: ≤0.25 µg/mL; MIC Meropenem + inhibitor [10]: ≤0.0312 µg/mL; MIC [10]: 16 µg/mL
